Experimental data: ChEMBL document CHEMBL6127124, “Structure-Activity Relationships and Discovery of (S)-5-(tert-Butyl)-11-(difluoromethoxy)-9-methoxy-2-oxo-1,2,5,6-tetrahydropyrido[2',1':2,3]imidazo[4,5-h]quinoline-3-carboxylic Acid (AB-161), a Novel Orally Available and Liver-Centric HBV RNA Destabilizer” (J Med Chem, 2024)

Experiments:
Hepatitis B virus = experiment: Antiviral activity against HBV infected in human HepG2.2.15 cells assessed as reduction in HBsAg level incubated for 6 days with media and compound replenishment on third day by CLIA; format: functional, organism-based; details: HepG2.2.15, 144 h; for EC90: time 6 day
[1] = Chemical stability of compound in PBS assessed as compound remaining measured after 6 days by HPLC UV analysis; format: physicochemical; details: buffer, 144 h; time 6 day
[2] = Cytotoxicity in human HepG2.2.15 cells by Cell Titer-Glo assay; format: toxicity, cell-based, HepG2 2.2.15
[3] = Ratio of total drug concentration in liver to plasma in CD-1 mouse at 10 mg/kg, po measured for 24 hrs by LC-MS/MS analysis; format: ADME, organism-based; details: for Ratio: mouse, in vivo, po, 10 mg/kg, 24 h, BLD = below limit of detection
[4] = Ratio of total drug concentration in liver to plasma in CD-1 mouse at 0.2 mg/kg, po measured for 12 hrs by LC-MS/MS analysis; format: ADME, organism-based; details: liver and plasma
[5] = Metabolic stability in human liver microsomes assessed as clearance at 0.3 uM preincubated for 5 mins followed by NADPH addition measured upto 60 mins by LC-MS/MS analysis; format: ADME, Microsome; details: time < 65 min, read-out: CLH
[6] = AUC (0 to 24 hrs) in CD-1 mouse at 10 mg/kg, po measured for 24 hrs by LC-MS/MS analysis; format: ADME, organism-based; details: in vivo
[7] = Selectivity ratio of drug concentration in liver in CD-1 mouse at 0.2 mg/kg, po measured for 12 hrs to EC90 for antiviral activity against HBV infected in human HepG2.2.15 cells assessed as reduction in HBsAg level; format: ADME, organism-based; details: in vivo
[8] = Selectivity ratio of drug concentration in liver in CD-1 mouse at 10 mg/kg, po measured for 12 hrs to EC90 for antiviral activity against HBV infected in human HepG2.2.15 cells assessed as reduction in HBsAg level; format: ADME, organism-based; details: in vivo
[9] = Selectivity ratio of drug concentration in liver in CD-1 mouse at 10 mg/kg, po measured for 24 hrs to EC90 for antiviral activity against HBV infected in human HepG2.2.15 cells assessed as reduction in HBsAg level; format: ADME, organism-based; details: in vivo
[10] = Selectivity ratio of drug concentration in liver in CD-1 mouse at 0.2 mg/kg, po measured for 24 hrs to EC90 for antiviral activity against HBV infected in human HepG2.2.15 cells assessed as reduction in HBsAg level; format: ADME, organism-based; details: in vivo, BLD = below limit of detection
[11] = Metabolic stability in CD-1 mouse liver microsomes assessed as clearance at 0.3 uM preincubated for 5 mins followed by NADPH addition measured upto 60 mins by LC-MS/MS analysis; format: ADME, Microsome; details: time < 65 min, read-out: CLH
[12] = Ratio of total drug concentration in liver to plasma in CD-1 mouse at 0.2 mg/kg, po measured for 24 hrs by LC-MS/MS analysis; format: ADME, organism-based; details: mouse, in vivo, po, 0.2 mg/kg, 24 h, BLD = below limit of detection
[13] = Ratio of total drug concentration in liver to plasma in CD-1 mouse at 10 mg/kg, po measured for 12 hrs by LC-MS/MS analysis; format: ADME, organism-based; details: liver and plasma
[14] = Metabolic stability in Sprague-Dawley rat liver microsomes assessed as clearance at 0.3 uM preincubated for 5 mins followed by NADPH addition measured upto 60 mins by LC-MS/MS analysis; format: ADME, Microsome; details: time < 65 min, read-out: CLH
[15] = AUC (0 to 24 hrs) in CD-1 mouse at 0.2 mg/kg, po measured for 24 hrs by LC-MS/MS analysis; format: ADME, organism-based; details: in vivo

SMILES | EC50 (Hepatitis B virus) [nM] | EC90 (Hepatitis B virus) [nM] | Stability [1] | CC50 [2] [nM] | Ratio [3] | Kp at 12 h [4] | microsomal CLint at 0.3 µM [5] [µL/min/mg] | AUC(0-t) at 24 h [6] [ng·h/mL] | Ratio [7] | Ratio [8] | Ratio ([9]; BLD = below limit of detection) | Ratio [10] | microsomal CLint at 0.3 µM [11] [µL/min/mg] | Ratio [12] | Kp at 12 h [13] | microsomal CLint at 0.3 µM [14] [µL/min/mg] | AUC(0-t) at 24 h [15] [ng·h/mL] | Kp at 24 h ([3]; CD-1, mouse, liver and plasma) | Ratio [9]
CC(C)(C)C1Cc2c(cc(OC(F)F)c3ncccc23)-c2[nH]c(=O)c(C(=O)O)c(O)c21 (stereo not given) | 0.3 | 2.4 | Unstable | 48000 | – | – | – | – | – | – | – | – | – | – | – | – | – | – | –
Cn1c2c(cc(C(=O)O)c1=O)[C@H](C(C)(C)C)Cc1c-2nc2c(C(F)(F)F)cc(Cl)cn12 | 0.24 | 2.5 | – | 15000 | Bld | 24 | 7 | 786 | 22 | 2002 | Bld | Bld | 1 | Bld | 43 | 2 | 17 | – | –
CC(C)(C)C1Cc2c(nc3c(C(F)(F)F)cc(F)cn23)-c2[nH]c(=O)c(C(=O)O)cc21 (stereo not given) | 4.9 | 10 | – | > 50000 | – | – | – | – | – | – | – | – | – | – | – | – | – | – | –
CC(C)(C)[C@@H]1Cc2c(nc3c(C(F)(F)F)cccn23)-c2[nH]c(=O)c(C(=O)O)cc21 | 3.1 | 46 | – | > 50000 | – | – | 2 | 2150 | – | 438 | – | – | 15 | – | 72 | 8 | – | 92 | 3
CC(C)(C)[C@@H]1Cc2c(nc3c(OC(F)F)cccn23)-c2[nH]c(=O)c(C(=O)O)cc21 | 3.7 | 34 | – | > 50000 | Bld | – | 2 | 853 | – | 108 | – | – | 45 | – | 133 | 33 | – | – | 1
CC(C)(C)C1Cc2c(nc3c(C(F)(F)F)cc(Cl)cn23)-c2c1cc(C(=O)O)c(=O)n2C1CC1 (stereo not given) | 2.3 | 7 | – | 16000 | – | – | – | – | – | – | – | – | – | – | – | – | – | – | –
CC(C)(C)[C@@H]1Cc2c(nc3c(C(F)(F)F)cc(Cl)cn23)-c2[nH]c(=O)c(C(=O)O)cc21 | 2 | 34 | – | > 50000 | – | – | 3 | – | – | – | – | – | 3 | – | – | – | – | – | –
COc1cccn2c3c(nc12)-c1[nH]c(=O)c(C(=O)O)cc1[C@H](C(C)(C)C)C3 | 12 | 121 | – | > 50000 | – | – | 1 | – | – | 3 | – | – | 16 | – | 11 | – | – | – | –
